Reference: US8895744B2, “Alfa-carboline inhibitors of NPM-ALK, RET, and Bcr-Abl” (Universita' Degli Studi di Milano-Bicocca, priority 2008, dated 2014)

How the values were obtained:
Recombinant ALK kinase = biological target: T1, Recombinant ALK kinase (Homo sapiens, UniProt Q9UM73); assay: ALK kinase inhibitory activity, ELISA-based in vitro kinase assay; type: biochemical; details: purified rALK, 0.3 mM ATP, read-out: ALK IC50
T1 construct: made in house; host or cells: Sf9 insect cells (baculovirus)
T1 sequence (Q9UM73 19-1620): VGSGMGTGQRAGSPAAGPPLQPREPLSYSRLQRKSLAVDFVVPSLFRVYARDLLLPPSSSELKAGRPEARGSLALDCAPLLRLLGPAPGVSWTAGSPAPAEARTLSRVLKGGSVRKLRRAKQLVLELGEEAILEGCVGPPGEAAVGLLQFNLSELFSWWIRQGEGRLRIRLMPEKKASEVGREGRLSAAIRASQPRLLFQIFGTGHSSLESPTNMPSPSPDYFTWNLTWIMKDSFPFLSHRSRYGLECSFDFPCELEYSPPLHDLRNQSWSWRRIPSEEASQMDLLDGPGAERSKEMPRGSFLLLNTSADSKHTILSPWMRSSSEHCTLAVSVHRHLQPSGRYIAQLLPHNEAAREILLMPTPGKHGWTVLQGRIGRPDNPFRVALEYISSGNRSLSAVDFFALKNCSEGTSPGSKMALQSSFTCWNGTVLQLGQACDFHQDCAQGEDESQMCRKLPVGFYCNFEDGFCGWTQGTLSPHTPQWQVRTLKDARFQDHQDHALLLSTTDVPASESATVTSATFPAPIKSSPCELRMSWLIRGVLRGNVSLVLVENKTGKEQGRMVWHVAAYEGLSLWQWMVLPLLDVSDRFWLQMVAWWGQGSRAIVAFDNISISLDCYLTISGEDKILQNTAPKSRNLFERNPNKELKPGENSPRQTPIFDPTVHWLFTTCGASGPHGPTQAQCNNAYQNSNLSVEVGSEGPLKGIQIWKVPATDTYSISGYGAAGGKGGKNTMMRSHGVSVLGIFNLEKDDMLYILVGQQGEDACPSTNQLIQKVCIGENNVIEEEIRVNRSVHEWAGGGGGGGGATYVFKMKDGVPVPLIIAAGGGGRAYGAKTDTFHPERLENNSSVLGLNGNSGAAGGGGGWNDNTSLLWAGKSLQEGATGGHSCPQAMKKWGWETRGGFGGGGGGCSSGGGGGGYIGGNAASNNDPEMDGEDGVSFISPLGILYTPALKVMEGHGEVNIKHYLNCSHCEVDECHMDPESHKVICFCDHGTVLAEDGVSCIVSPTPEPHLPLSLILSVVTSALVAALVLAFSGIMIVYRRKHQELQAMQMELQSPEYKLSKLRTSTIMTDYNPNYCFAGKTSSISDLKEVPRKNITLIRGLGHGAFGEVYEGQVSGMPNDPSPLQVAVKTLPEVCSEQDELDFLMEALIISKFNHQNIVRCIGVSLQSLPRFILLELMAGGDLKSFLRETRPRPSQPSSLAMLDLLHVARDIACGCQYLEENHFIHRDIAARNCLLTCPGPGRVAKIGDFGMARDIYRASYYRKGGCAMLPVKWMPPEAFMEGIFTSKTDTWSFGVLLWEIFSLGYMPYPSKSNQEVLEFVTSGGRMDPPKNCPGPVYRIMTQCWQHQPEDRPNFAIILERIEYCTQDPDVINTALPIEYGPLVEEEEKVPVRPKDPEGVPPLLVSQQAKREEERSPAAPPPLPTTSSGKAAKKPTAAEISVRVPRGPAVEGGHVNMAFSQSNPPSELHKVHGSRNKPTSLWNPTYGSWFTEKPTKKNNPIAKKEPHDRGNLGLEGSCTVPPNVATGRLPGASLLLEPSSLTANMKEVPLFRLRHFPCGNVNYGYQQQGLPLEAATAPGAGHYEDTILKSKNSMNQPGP
Procedure: 36. Alk Kinase Inhibitory Activity
(§1) Method: ELISA-Based In Vitro Kinase Assay
(§2) Recombinant ALK kinase was expressed in Sf9 insect cells using the pBlueBacHis2C baculovirus vector system and purified using an anion exchange Fast Flow Q-sepharose column (Amersham-Pharmacia Biotech) followed by HiTrap™-nickel affinity column (Amersham-Pharmacia Biotech). Purified ALK protein was used to screen inhibitors in the ELISA-based kinase assay. A Nunc Immuno 96 well plate was incubated overnight at 37° C. with coating solution (125 μL/well) containing ALK peptide substrate ([…]) (SEQ ID NO: 1) at various concentrations in PBS. Wells were then washed with 200 μL of wash buffer (PBS-Tween 0.05%) and left to dry for at least 2 h at 37° C. The kinase reaction was performed in the presence of 50 mM Tris pH 7.5, 5 mM MnCl2, 5 mM MgCl2, 0.3 mM ATP and purified rALK in a total volume of 100 μL/well at 30° C. for 15 min. For inhibitor testing the reaction mix was preincubated with the inhibitor or solvent control for 10 min at room temperature before transferring to the ELISA plate. After the reaction wells were washed 5 times with 200 μL of wash buffer. Phosphorylated peptide was detected using 100 μL/well of a mouse monoclonal anti-phosphotyrosine antibody (clone 4G10 Upstate Biotech Ltd) diluted 1:2000 in PBS+4% BSA. After 30 min incubation at room temperature the antibody was removed and wells were washed as described above. 100 μL of a secondary antibody (anti-mouse IgG, Horseradish Peroxidase linked whole antibody, Amersham Pharmacia Biotech) diluted 1:1000 in PBS+4% BSA was added to each well and the plate was incubated again for 30 min at room temperature before washing as above. The plate was developed using 100 μL/well TMB Substrate Solution (Endogen) and the reaction was stopped by adding an equiv.ual volume of H2SO4 0.36 M. Finally, the absorbance was read at 450 nm using an Ultrospec® 300 spectrophotometer (Amersham-Pharmacia Biotech). The concentration of the test solution showing 50% inhibition as compared with the control was expressed as IC50 (μM).

[1] = test system: parent untransformed BaF3 cells; assay: Tritiated thymidine uptake cell proliferation assay, parental BaF3 (control); type: cell-based; details: Mus musculus, 3[H]-thymidine uptake, 72 h, medium with IL-3, read-out: BaF parental IC50
Procedure: (§3) Method: Tritiated Thymidine Uptake Cell Proliferation Assay
(§4) The following procedure was used with parent untransformed BaF3 cells, BaF3 cells transformed with the oncogenic fusion protein NPM/ALK, NPM/ALK positive SUDHL-1 cells, ALK-negative U937 cells, NPM/ALK positive KARPAS-299 cells. The parent untransformed BaF3 cells and Alk-negative U937 cells are used as controls. Cells were seeded in U-bottomed 96-well plates at 10 000 cells/well in a volume of 100 μL in supplemented medium. In the case of the parent untransformed BaF3 cells, the medium was supplemented with IL-3. Serial dilutions of inhibitors were added to the appropriate wells and volumes adjusted to 200 μL. Controls were treated with the equivalent volume of vehicle, DMSO, alone. Plates were incubated at 37° C. for 72 h. ^3[H]-thymidine (1 μCi/well) was added for the last 16 h of incubation. Cells were harvested on to paper filters and ^3[H]-thymidine incorporation was measured using a β scintillation counter (1430 MicroBeta, Wallac, Turku, Finland). The 50% inhibitory concentration (IC50) was defined as the concentration of inhibitor, expressed in micromolar, that gave a 50% decrease in ^3[H]-thymidine uptake compared with controls.
as §4, with “protein bcr-abl, Abl-negative” for “protein NPM/ALK, NPM/ALK positive SUDHL-1 cells, ALK-negative”, “cells, or Bcr-abl” for “cells, NPM/ALK”, “positive LAMA-84” for “positive KARPAS-299”, “and Abl-negative” for “and Alk-negative”, “in ^3H-thymidine” for “in ^3[H]-thymidine”
as §4, with “RET-PTC2, or RET-negative 11937” for “NPM/ALK, NPM/ALK positive SUDHL-1 cells, ALK-negative U937 cells, NPM/ALK positive KARPAS-299”, “RET-negative” for “Alk-negative”

[2] = biological target: T2, BaF3 cells transformed with the oncogenic fusion protein NPM/ALK (Homo sapiens, UniProt Q9UM73); assay: Tritiated thymidine uptake cell proliferation assay, BaF3 NPM/ALK; type: cell-based; details: 3[H]-thymidine uptake, 72 h; read-out: BaF NPM/ALK IC50
T2 construct: fused on or other part: P06748 (Nucleophosmin)
T2 sequence (Q9UM73 whole entry, change not shown, the tested form may be a part): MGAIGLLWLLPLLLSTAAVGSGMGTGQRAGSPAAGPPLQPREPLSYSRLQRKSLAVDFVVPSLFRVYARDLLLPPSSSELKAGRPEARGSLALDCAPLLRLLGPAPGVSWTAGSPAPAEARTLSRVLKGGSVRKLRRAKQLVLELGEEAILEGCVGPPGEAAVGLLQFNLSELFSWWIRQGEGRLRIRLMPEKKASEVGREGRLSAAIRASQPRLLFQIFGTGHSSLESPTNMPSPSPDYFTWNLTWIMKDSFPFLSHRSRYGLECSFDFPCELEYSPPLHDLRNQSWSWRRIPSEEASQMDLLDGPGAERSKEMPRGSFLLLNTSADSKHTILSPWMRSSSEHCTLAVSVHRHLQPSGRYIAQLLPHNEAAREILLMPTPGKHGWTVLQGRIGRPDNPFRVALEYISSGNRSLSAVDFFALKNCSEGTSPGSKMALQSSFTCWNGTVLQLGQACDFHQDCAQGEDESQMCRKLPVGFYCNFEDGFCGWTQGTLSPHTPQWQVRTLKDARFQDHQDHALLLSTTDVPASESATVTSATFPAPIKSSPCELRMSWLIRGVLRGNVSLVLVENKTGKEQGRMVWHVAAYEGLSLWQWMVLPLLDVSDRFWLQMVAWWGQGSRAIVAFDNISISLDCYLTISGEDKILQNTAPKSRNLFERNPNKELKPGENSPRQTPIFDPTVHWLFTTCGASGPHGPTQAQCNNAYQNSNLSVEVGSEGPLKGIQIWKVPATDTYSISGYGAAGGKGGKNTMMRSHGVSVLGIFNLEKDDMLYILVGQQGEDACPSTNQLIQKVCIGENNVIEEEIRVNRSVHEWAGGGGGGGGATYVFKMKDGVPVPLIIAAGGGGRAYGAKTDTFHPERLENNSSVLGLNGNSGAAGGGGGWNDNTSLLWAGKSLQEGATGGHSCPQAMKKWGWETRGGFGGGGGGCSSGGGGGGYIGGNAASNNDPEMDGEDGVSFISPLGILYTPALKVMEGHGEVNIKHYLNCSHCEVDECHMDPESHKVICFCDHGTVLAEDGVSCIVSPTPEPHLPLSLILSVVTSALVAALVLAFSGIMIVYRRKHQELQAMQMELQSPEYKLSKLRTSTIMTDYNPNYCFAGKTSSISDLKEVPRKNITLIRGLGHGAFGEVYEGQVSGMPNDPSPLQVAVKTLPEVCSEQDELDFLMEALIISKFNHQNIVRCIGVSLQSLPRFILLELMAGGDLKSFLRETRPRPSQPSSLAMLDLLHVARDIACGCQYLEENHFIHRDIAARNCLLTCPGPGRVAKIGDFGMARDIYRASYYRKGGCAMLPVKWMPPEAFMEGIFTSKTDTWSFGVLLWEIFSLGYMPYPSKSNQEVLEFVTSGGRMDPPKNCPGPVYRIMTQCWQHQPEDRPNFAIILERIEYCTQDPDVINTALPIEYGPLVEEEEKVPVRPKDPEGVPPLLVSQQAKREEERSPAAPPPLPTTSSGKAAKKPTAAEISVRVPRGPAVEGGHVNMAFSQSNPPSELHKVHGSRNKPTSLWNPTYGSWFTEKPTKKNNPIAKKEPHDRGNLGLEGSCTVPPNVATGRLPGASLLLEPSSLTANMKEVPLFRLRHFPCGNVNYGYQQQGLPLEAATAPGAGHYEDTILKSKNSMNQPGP
Procedure: Inhibition of the proliferation of NPM/ALK positive cells
as §3, §4

[3] = biological target: T3, Recombinant Abl T315I protein (Homo sapiens, UniProt P00519, T315I); assay: Abl T315I mutant kinase inhibitory activity, ELISA-based in vitro kinase assay; type: biochemical; details: purified Abl T315I, 0.3 mM ATP
T3 construct: made in house; host or cells: Sf9 cells (baculovirus)
Procedure: as §2
37. Abl T315I Mutant Kinase Inhibitory Activity
as §1
Recombinant Abl T315I protein was expressed in Sf9 cells using the pBlueBacHis2C baculovirus expression vector. Abl T315I was purified using an anion exchange Fast Flow Q-sepharose column (Amersham-Pharmacia Biotech) followed by HiTrap™-nickel affinity column (Amersham-Pharmacia Biotech). Purified Abl T315I was used in the ELISA-based kinase assay to screen inhibitors as described above. The kinase reaction was performed in the presence of 50 mM Tris pH 7.5, 1 mM MnCl2, 5 mM MgCl2, 0.3 mM ATP, peptide substrate ([…]) (SEQ ID NO: 1) and purified Abl T315I. The concentration of the test solution showing 50% inhibition as compared with the control was expressed as IC50 (μM).

COC(=O)C(=O)c1ccc2[nH]c3nc(C)ccc3c2c1 [R241, Methyl 2-oxo-2-[2-methyl-9H-pyrido[2,3-b]indol-6-yl]acetate]
IC50 (Recombinant ALK kinase): 25.3 ± 2.6 µM

CC(=O)c1ccc2[nH]c3nc(C)ccc3c2c1 [R242, 6-acetyl-2-methyl-9H-pyrido[2,3-b]indole]
IC50 (Recombinant ALK kinase): 87.1 ± 1.3 µM

Cc1ccc2c(n1)[nH]c1ccc(C(=O)c3ccccc3)cc12 [R243, 6-benzoyl-2-methyl-9H-pyrido[2,3-b]indole]
IC50 (Recombinant ALK kinase): 15.3 ± 1.5 µM

O=[N+]([O-])/C=C/c1ccc2[nH]c3ncccc3c2c1 [R244]
IC50 (Recombinant ALK kinase): 14.6 ± 2.8 µM

CNCC(=O)c1ccc2[nH]c3ncccc3c2c1 [R245]
IC50 (Recombinant ALK kinase): 82.4 ± 8.1 µM

CN(C)/C=C/C(=O)c1ccc2[nH]c3ncccc3c2c1 [R246]
IC50 (Recombinant ALK kinase): 55.1 ± 16.9 µM

Nc1cccc(-c2ccc3[nH]c4ncccc4c3c2)n1 [R247]
IC50 (Recombinant ALK kinase): > 100 µM

O=C(Nc1ccc2[nH]c3ncccc3c2c1)c1ccccc1 [R249]
IC50 (Recombinant ALK kinase): > 100 µM

O=C(CBr)c1ccc2[nH]c3ncc(Cl)cc3c2c1 [R251, 2-Bromo-1-(3-chloro-9H-pyrido[2,3-b]indol-6-yl)ethanone]
IC50 (Recombinant ALK kinase): 9.7 ± 1.3 µM

COc1ccc2sc(SCC(=O)c3ccc4[nH]c5ncc(Cl)cc5c4c3)nc2c1 [R301, 1-(3-chloro-9H-pyrido[2,3-b]indol-6-yl)-2-(5-methoxybenzothiazol-2-ylsulfanyl)éthanone]
IC50 (Recombinant ALK kinase): 38 ± 16 µM

CN1CCN(C(=O)CCC(=O)c2ccc3[nH]c4nc(Cl)ccc4c3c2)CC1 [R302, 1-(2-Chloro-9H-pyrido[2,3-b]indol-6-yl)-4-(4-methylpiperazin-1-yl)butane-1,4-dione]
IC50 (Recombinant ALK kinase): 24 ± 2 µM | IC50 [1]: 5.8 µM | GI50 [2]: 4.8 µM

CN1CCN(C(=O)CCC(=O)c2ccc3[nH]c4ncc(Cl)cc4c3c2)CC1 [R303, 1-(3-Chloro-9H-pyrido[2,3-b]indol-6-yl)-4-(4-methylpiperazin-1-yl)butane-1,4-dione]
IC50 (Recombinant ALK kinase): 93 ± 1 µM | IC50 [3]: 87 µM | IC50 [1]: 9.5 µM | GI50 [2]: 5.1 µM

CCN(CC)CCSCC(=O)c1ccc2[nH]c3nc(Cl)ccc3c2c1 [R305, 1-(2-Chloro-9H-pyrido[2,3-b]indol-6-yl)-2-(N,N-diethylaminoethylsulfanyl)ethan-1-one]
IC50 (Recombinant ALK kinase): 17 ± 1 µM | IC50 [3]: 16 µM | IC50 [1]: 5.5 µM | GI50 [2]: 5.2 µM

Clc1cnc2[nH]c3ccc(-c4ccc(N5CCOCC5)cn4)cc3c2c1 [R308, 3-Chloro-6-(5-morpholin-4-yl-pyridin-2-yl)-9H-pyrido[2,3-b]indole]
IC50 (Recombinant ALK kinase): > 100 µM | IC50 [1]: 50 µM | GI50 [2]: 60 µM

C(=C\c1ccc2c(n1)[nH]c1ccc(-c3ccc(CN4CCOCC4)cc3)cc12)/c1ccccc1 [R316]
IC50 (Recombinant ALK kinase): > 33 µM | IC50 [1]: > 33 µM | GI50 [2]: 10 µM

C(=C\c1ccc2[nH]c3nc(Nc4ccccc4)ccc3c2c1)/c1ccccc1 [R320]
IC50 [1]: 23 µM

CCN(CC)CCSCC(=O)c1ccc2[nH]c3nc(Nc4cccc([N+](=O)[O-])c4)ccc3c2c1 [R321, 2-(2′-(N,N-diethylamino)ethylthio)-1-[2-(3-nitrophenylamino)-9H-pyrido[2,3-b]indol-6-yl]ethanone]
IC50 (Recombinant ALK kinase): 18 ± 1 µM | IC50 [1]: 0.7 µM | GI50 [2]: 0.3 µM

O=[N+]([O-])c1cccc(Nc2ccnc3[nH]c4ccccc4c23)c1 [R322, N-(3-nitrophenyl)-9H-pyrido[2,3-b]indol-4-amine]
IC50 (Recombinant ALK kinase): 20 ± 4 µM | IC50 [1]: > 100 µM | GI50 [2]: 57 µM

COc1cccc(Nc2ccnc3[nH]c4ccccc4c23)c1 [R324, N-(3-methoxyphenyl)-9H-pyrido[2,3-b]indol-4-amine]
IC50 (Recombinant ALK kinase): > 100 µM | IC50 [1]: 1.7 µM | GI50 [2]: 3.8 µM

c1coc(-c2cnc3[nH]c4ccccc4c3c2)c1 [R325, 3-(furan-2-yl)-9H-pyrido[2,3-b]indole]
IC50 [1]: > 100 µM | GI50 [2]: > 100 µM

O=[N+]([O-])c1cccc(-c2cnc3[nH]c4ccccc4c3c2)c1 [R328, 3-(3-nitrophenyl)-9H-pyrido[2,3-b]indole]
IC50 (Recombinant ALK kinase): 48 ± 17 µM | IC50 [1]: 6.8 µM | GI50 [2]: 13 µM

c1ccc(-c2ccc(-c3cnc4[nH]c5ccccc5c4c3)cc2)cc1 [R329, 3-(4-phenylphenyl)-9H-pyrido[2,3-b]indole]
IC50 (Recombinant ALK kinase): 12 ± 7 µM | IC50 [1]: > 100 µM | GI50 [2]: > 100 µM

c1ccc(-c2ccc(-c3ccnc4[nH]c5ccccc5c34)cc2)cc1 [R330, 4-(4-phenylphenyl)-9H-pyrido[2,3-b]indole]
IC50 (Recombinant ALK kinase): 14 ± 2 µM | IC50 [1]: > 100 µM | GI50 [2]: > 100 µM

COc1cccc(Nc2cnc3[nH]c4ccccc4c3c2)c1 [R344, N-(3-methoxyphenyl)-9H-pyrido[2,3-b]indol-3-amine]
IC50 (Recombinant ALK kinase): > 100 µM

c1c[nH]c(-c2ccc3c(n2)[nH]c2ccccc23)c1 [R355, 2-(1H-pyrrol-2-yl)-9H-pyrido[2,3-b]indole]
IC50 (Recombinant ALK kinase): > 100 µM

COc1ccc(-c2ccc3[nH]c4ncc(-c5cccc([N+](=O)[O-])c5)cc4c3c2)cc1 [R356]
IC50 (Recombinant ALK kinase): > 100 µM

COc1ccc(-c2ccc3[nH]c4ncc(-c5cccc(N)c5)cc4c3c2)cc1 [R357, 3-(6-(4-methoxyphenyl)-9H-pyrido[2,3-b]indol-3-yl)benzenamine]
IC50 (Recombinant ALK kinase): > 100 µM

Fc1cccc(/C=C/c2cnc3[nH]c4ccc(/C=C/c5ccccc5)cc4c3c2)c1 [R359, 3-((E)-2′-(3-fluorophenyl)ethenyl)-6-(E)-(2-(phenyl)ethenyl)-9H-pyrido[2,3-b]indole]
IC50 (Recombinant ALK kinase): > 100 µM
